Data taken from patent publication US7595334B2, “Broadspectrum 2-(substituted-amino)-benzoxazole sulfonamide HIV protease inhibitors” (Tibotec Pharmaceuticals Ltd., priority 2001, dated 2009).

What was measured:
[1] = tested on: mock-infected MT4 cells; test: in vitro
Protocol: (§1) HIV- or mock-infected MT4 cells were incubated for five days in the presence of various concentrations of the inhibitor. […] Cell viability is measured by measuring the concentration of MTT, a yellow, water soluble tetrazolium dye that is converted to a purple, water insoluble formazan in the mitochondria of living cells only. Upon solubilization of the resulting formazan crystals with isopropanol, the absorbance of the solution is monitored at 540 nm. The values correlate directly to the number of living cells remaining in the culture at the completion of the five day incubation. The inhibitory activity of the compound was monitored on the virus-infected cells and was expressed as EC50 and EC90. These values represent the amount of the compound required to protect 50% and 90%, respectively, of the cells from the cytopathogenic effect of the virus. The toxicity of the compound was measured on the mock-infected cells and was expressed as CC50, which represents the concentration of compound required to inhibit the growth of the cells by 50%. The selectivity index (SI) (ratio CC50/EC50) is an indication of the selectivity of the anti-HIV activity of the inhibitor. Wherever results are reported as e.g. pEC50 or pCC50 values, the result is expressed as the negative logarithm of the result expressed as EC50 or CC50 respectively.
(§2) As a measure of the broad spectrum activity of the present compounds, the fold resistance (FR), defined as FR=EC50(mutant strain)/EC50(HIV-1 strain LAI), was determined.

[2] = tested on: HIV-1 LAI; test: Protein binding analyses: anti-HIV activity in presence of serum proteins; format: cell-based; conditions: MT4 cells
Protocol: Human serum proteins like albumin (HSA) or α-1 acid glycoprotein (AAG) are known to bind many drugs, resulting in a possible decrease in the effectiveness of those compounds. In order to determine whether the present compounds would be adversely affected by this binding, the anti-HIV activity of the compounds was measured in the presence of human serum, thus evaluating the effect of the binding of the protease inhibitors to those proteins.
MT4 cells are infected with HIV-1 LAI at a multiplicity of infection (MOI) of 0.001-0.01 CCID50 (50% cell culture infective dose per cell, CCID50). After 1 h incubation, cells are washed and plated into a 96 well plate containing serial dilutions of the compound in the presence of 10% FCS (foetal calf serum), 10% FCS+1 mg/ml AAG (α1-acid glycoprotein), 10% FCS+45 mg/ml HSA (human serum albumin) or 50% human serum (HS). After 5 or 6 days incubation, the EC50 (50% effective concentration in cell-based assays) is calculated by determining the cell viability or by quantifying the level of HIV replication. Cell viability is measured using the assay described above. Into a 96 well plate containing serial dilutions of the compound in the presence of 10% FCS or 10% FCS+1 mg/ml AAG, HIV (wild type or resistant strain) and MT4 cells are added to a final concentration of 200-250 CCID50/well and 30,000 cells/well, respectively. After 5 days of incubation (37° C., 5% CO2), the viability of the cells is determined by the tetrazolium colorimetric MTT (3-[4,5-Dimethylthiazol-2-yl]-2,5-diphenyltetrazolium bromide) method (Pauwels et al. J Virol. Methods 1988, 20, 309-321).

[3] = tested on: HIV strain B (clinically isolated, protease mutations); format: cell-based; conditions: FR=EC50(mutant strain B)/EC50(HIV-1 strain LAI)
Protocol: as §1, §2

[4] = tested on: HIV strain A (clinically isolated, protease mutations); format: cell-based; conditions: FR=EC50(mutant strain A)/EC50(HIV-1 strain LAI)
Protocol: as §1, §2

[5] = tested on: HIV strain D (clinically isolated, protease mutations); format: cell-based; conditions: FR=EC50(mutant strain D)/EC50(HIV-1 strain LAI)
Protocol: as §1, §2

[6] = tested on: HIV strain C (clinically isolated, protease mutations); format: cell-based; conditions: FR=EC50(mutant strain C)/EC50(HIV-1 strain LAI)
Protocol: as §1, §2

[7] = tested on: HIV strain F (clinically isolated, protease mutations); format: cell-based; conditions: FR=EC50(mutant strain F)/EC50(HIV-1 strain LAI)
Protocol: as §1, §2

[8] = tested on: HIV strain E (clinically isolated, protease mutations); format: cell-based; conditions: FR=EC50(mutant strain E)/EC50(HIV-1 strain LAI)
Protocol: as §1, §2

[9] = in vivo, ip, 20 mg/kg
Protocol: The compounds are formulated as a 20 mg/ml solution or suspension in DMSO, PEG400 or cyclodextin 40% in water. For most experiments in the rat (male and female rats), three dosing groups are formed: 1/single intraperitoneal (IP) dose at 20 mg/kg using the DMSO formulation; 2/single oral dose at 20 mg/kg using the PEG400 formulation and 3/single oral dose at 20 mg/kg using the cyclodextrin formulation. Blood is sampled at regular time intervals after dosing and drug concentrations in the serum are determined using a LC-MS bioanalytical method. Serum concentrations are expressed in […] after normalization to 10 mg/kg. Serum concentration at 30 minutes (30′) and at 3 hours (180′) can be determined as these values reflect the extent of absorption (30′) and the speed of elimination (180′). The rat serum concentration at 30 min and 180 min following IP administration of 20 mg/kg of compound 4 are 1098 ng/ml and 553 ng/ml respectively.

[10] = in vitro; conditions: human
Protocol: as §1, §2

Structure (SMILES) | Tox (pCC50) [1] | Ratio of the EC50 compared to FCS (10%) ([2]; AAG 1 mg/ml (10% FCS+AAG)) | Ratio of the EC50 compared to FCS (10%) ([2]; FCS (10%)) | Ratio of the EC50 compared to FCS (10%) ([2]; HS 50% (human serum)) | Ratio of the EC50 compared to FCS (10%) ([2]; HSA 45 mg/ml (10% FCS+HSA)) | B (FR) fold resistance [3] | A (FR) fold resistance [4] | D (FR) fold resistance [5] | C (FR) fold resistance [6] | F (FR) fold resistance [7] | E (FR) fold resistance [8] | rat serum concentration at 30 min [9] | rat serum concentration at 180 min [9] | CC50 at 5 days [10]
CC(=O)Nc1nc2ccc(S(=O)(=O)N(CC(C)C)C[C@@H](O)[C@H](Cc3ccccc3)NC(=O)O[C@H]3CO[C@H]4OCC[C@H]43)cc2o1 [Compound 1] | <4 | 25 | 1 | 15 | 6 | 0.80 | 0.63 | 0.72 | 0.50 | 0.71 | 0.40 |  |  | 
CC(C)CN(C[C@@H](O)[C@H](Cc1ccccc1)NC(=O)O[C@H]1CO[C@H]2OCC[C@H]21)S(=O)(=O)c1ccc2nc(NCCN3CCCC3)oc2c1 [Compound 4] |  |  |  |  |  | 1.62 | 1.95 | 0.47 | 1.70 | 3.2 | 0.50 | 1098 ng/mL | 553 ng/mL | 
CC(C)CN(C[C@@H](O)[C@H](Cc1ccccc1)NC(=O)OCc1cncs1)S(=O)(=O)c1ccc2nc(NC(=O)c3ccncc3)oc2c1 [Compound 10] |  |  |  |  |  | 10.83 | 3.9 | 3.9 | 1.1 | 20 | 1.3 |  |  | 53.7 µM
